Tests used:
Akt1 phosphorylation = assay: Detection of Akt1 phosphorylation by intracellular flow cytometry; assay type: cell-based, human; conditions: for decrease of Akt1 phospho-form: HT-29 cells; for phosphorylation of Akt1: GI50 and TGI concentrations
Protocol: (§1) To investigate whether KA25 and KA39 triazolo[3,4-b]thiadiazole derivatives inhibit the phosphorylation of Akt1 and Akt2 isoforms, three colorectal cancer cell lines including HT-29, LoVo, and SW403 were intracellularly stained upon treatment with the two referred compounds. Firstly, cells were seeded into a 6-well plate at a density of 7 × 10^5 cells/well and maintained at 37 °C in a […]. After 24 h of cell growth, the culture medium was discarded and replaced with 2 mL of fresh medium. […] The required GI50 and TGI concentrations (μΜ) of the KA25 and KA39 derivatives in HT-29 and LoVo cells have been determined in previous studies. To estimate the TGI concentration (μΜ) of the KA25 compound in SW403 cells, further MTT assays were carried out as previously described. Following drug exposure at the mentioned treatment conditions, the cells were collected after being washed with ice-cold PBS (pH = 7.4) and detached enzymatically with standard trypsinization. Two centrifugations were followed at 1500 rpm for 5 min, including two washing steps with 2 mL of cell staining buffer (BioLegend, San Diego, CA, USA). Cell pellets were fixed with 500 μL of pre-warmed fixation buffer (BioLegend, San Diego, CA, USA) and incubated at 37 °C for 15 min. Afterwards, one centrifugation was carried out at 1000 rpm for 5 min, followed by supernatant discard and resuspension of cell pellet through vortex. Then, the cells were washed with 2 mL of cell staining buffer twice, including two centrifugations at 1000 rpm for 5 min at room temperature. After the cell pellet was resuspended with gentle pipetting, cells were permeabilized by adding 1000 μL of pre-chilled True-Phos Permeabilization buffer (BioLegend, San Diego, CA, USA) while vortexing. Following overnight incubation at −20 °C, the cells were centrifuged at 2000 rpm for 5 min and the supernatant was discarded. After the cell pellet was resuspended by vortexing, two centrifugations were performed at 2000 rpm for 5 min including two washes with 2 mL of cell staining buffer. The cell pellet was resuspended with 200 μL of cell staining buffer, and equal volumes were transferred into the appropriate tubes. To detect total Akt1 and Akt2, 2 μL of purified anti-Akt1 and anti-Akt2 (BioLegend, San Diego, CA, USA) was added, respectively. Additionally, 2 μL of purified anti-Akt phospho(Ser473) (BioLegend, San Diego, CA, USA) was added for the detection of either phosphorylated AKT1 or AKT2. Furthermore, a cocktail of isotype controls (5 μL of purified mouse IgG1, 5 μL of purified mouse IgG2b, and 1 μL of purified rabbit polyclonal isotype control antibody) was used to differentiate nonspecific background signals from specific antibody signals. The cells were incubated for 30 min at room temperature in the dark and then stained with 5 μL of phycoerythrin (PE) donkey anti-rabbit IgG and 2 μL of Alexa Fluor 488 Goat anti mouse IgG (BioLegend, San Diego, CA, USA). After 15 min of incubation in the dark, the cells were resuspended with 1000 μL of cell staining buffer and analyzed in the flow cytometer (CyFlow®, SL, Partec, GmbH, Muenster, Germany). Flow cytometric analysis was carried out in triplicate and performed by Partec Flomax software.
(§2) The inhibitory impact of the two triazolo[3,4-b]thiadiazole derivatives KA25 and KA39 on the phosphorylation of either Akt1 (p-Akt1) or Akt2 (p-Akt2) was determined by the following formulas: p-Akt1(%) or p-Akt2 (%) = [(mean-xtreated − isotypetreated)]/[(mean-xuntreated − isotypeuntreated)] × 100, where the isotype value is subtracted from the mean-x value of the corresponding condition, including treated and untreated cells. As the formulas indicate, the difference in value of treated cells is divided by the difference in value of untreated cells (control group) to estimate the extent of inhibition. […]

Akt2 phosphorylation = assay: Detection of Akt2 phosphorylation by intracellular flow cytometry; assay type: cell-based, human; conditions: for decrease of Akt2 phospho-form: HT-29 cells; for phosphorylation of Akt2: GI50 and TGI concentrations
Protocol: as §1, §2

HT-29 = system: HT-29; parameters: method as in PMID 32801761; conditions: HT-29 cells, concentration used for Akt phosphorylation study, determined in previous studies ref 23; cited from earlier work
[1] = GI50 concentration (KA39 11.5 μΜ, KA25 1 μΜ), 3 h
[2] = GI50 concentration (KA39 11.5 μΜ, KA25 1 μΜ), 24 h
[3] = TGI concentration (KA39 15.9 μΜ, KA25 120 μΜ), 3 h
[4] = TGI concentration (KA39 15.9 μΜ, KA25 120 μΜ), 24 h
[5] = LoVo cells, 3 and 24 h (Figure S47)
[6] = SW403 cells, 3 and 24 h (Figure S48)

| SMILES | decrease of Akt1 phospho-form (Akt1 phosphorylation; [1]) [%] | decrease of Akt1 phospho-form (Akt1 phosphorylation; [2]) [%] | decrease of Akt1 phospho-form (Akt1 phosphorylation; [3]) [%] | decrease of Akt1 phospho-form (Akt1 phosphorylation; [4]) [%] | phosphorylation of Akt1 (Akt1 phosphorylation; [5]) | phosphorylation of Akt1 (Akt1 phosphorylation; [6]) | decrease of Akt2 phospho-form (Akt2 phosphorylation; [1]) [%] | decrease of Akt2 phospho-form (Akt2 phosphorylation; [2]) [%] | decrease of Akt2 phospho-form (Akt2 phosphorylation; [3]) [%] | decrease of Akt2 phospho-form (Akt2 phosphorylation; [4]) [%] | phosphorylation of Akt2 (Akt2 phosphorylation; [5]) | phosphorylation of Akt2 (Akt2 phosphorylation; [6]) | TGI concentration (HT-29) [μΜ] |
| --- | --- | --- | --- | --- | --- | --- | --- | --- | --- | --- | --- | --- | --- |
| COc1cc(Cc2nnc3sc(C=Cc4ccc(F)cc4)nn23)c(S(=O)(=O)N(C)C)cc1OC [KA25] | 83.38 | 79.8 | 86.45 | 87.73 | significantly inhibited | significantly inhibited | 73.74 | 76.9 | 82.6 | 86.4 | significantly inhibited | significantly inhibited | 120 |
| COc1cc(Cc2nnc3sc(-c4cc([N+](=O)[O-])ccc4[N+](=O)[O-])nn23)c(S(=O)(=O)N(C)C)cc1OC [KA39] | 73.66 | 75.71 | 72.9 | 88.5 | significantly inhibited | significantly inhibited | 60.76 | 83.55 | 58.87 | 86 | significantly inhibited | significantly inhibited | 15.9 |
